Experimental findings from US20240382612A1, “BIOACTIVE CONJUGATE, PREPARATION METHOD THEREFOR AND USE THEREOF” (priority 2017, published 2024) are described below.

Like-named read-outs stand apart in the source and are kept apart here. Non-standard residues stand in square brackets, D forms with d. Residues, ends and D or L forms follow the SMILES beside them. ξ: configuration not given here. *: point of attachment. Dolaproine = CO[C@@H]([C@@H]1CCCN1)[C@@H](C)C(=O)O; Dil = CC[C@H](C)[C@H](NC)[C@@H](CC(=O)O)OC; NH(4-aminobenzyl) = Nc1ccc(CN*)cc1; NMe2Val = CC(C)[C@@H](C(=O)*)N(C)C; β3hF = N[C@H](CC(=O)O)Cc1ccccc1; ξF = NC(Cc1ccccc1)C(=O)O

The subject of data set [1] is MDA-MB-468 (Trop-2 positive cell lines). Nature of the data set: In-vitro cell activity test (CCK8), MDA-MB-468. The class given is cell-based. The note with it: Homo sapiens, 96 h; MDA-MB-468, 7500 cells/well, 4 days; read-out: EC50 (nM), killing effects of bioactive molecules on cells. On the procedure: (§1) First, tumor cells MDA-MB-468 (Trop-2 positive cell lines) and HCC1806 (Trop-2 positive cell lines) were cultured. The bioactive molecules and ADC molecules disclosed in the disclosure were co-cultured with the tumor cells, then a CCK8 reagent (Dojindo Molecular Technologies, Inc., Cat: CK04, Lot:JJ744) was added. The activity of dehydrogenase in mitochondria was tested through readings (detection wave length was 450 nm) from a microplate reader (manufacturer: Molecular Devices, model: SpectraMax M2) so as to evaluate the inhibitory effect of ADC on cell proliferation.
(§2) In-vitro cell activity testing: bioactive molecules or ADCs were diluted (12 concentration gradients) with corresponding test media (containing 2% FBS). The tumor cells were trypsinized with trypsin by a conventional method, collected and counted, and then resuspended with corresponding test media (containing 2% FBS). Diluted bioactive molecules or ADCs were added to a 96-well plate, and then cells were added. 20 μL of the CCK8 reagent was added to each well and reacted for 4 h, and readings (detection wavelength was 450 nm) were taken from a microplate reader.

Data set [2] relates to HCC1806 (Trop-2 positive cell lines). In words: In-vitro cell activity test (CCK8), HCC1806. The class given is cell-based. The note with it: Homo sapiens, read-out: EC50 (nM), killing effects of bioactive molecules on cells. How it is done:
as §1, §2

Data set [3] has as its system human gastric cancer cell line NCI-N87. In words: Experimental example 1: NCI-N87 gastric cancer subcutaneous xenograft, tumor inhibition. The format is in vivo, Balb/c-nu mice. The note with it: D21 after administration; IV, BIW×3W; BT001021 and Immu-132 3 mg/kg, toxins T-030 and SN-38 equimolar to ADC. How it is done:
Tumor-bearing mice (6 mice/group) with tumor volume of 100-200 mm^3 were randomly grouped (the number of groups was determined according to sample number). The administration volume was 10 ml/kg, and the administration route was tail intravenous injection. The mice were administered twice a week, and tumor diameter was measured with a vernier caliper, and tumor volume was calculated based on the following calculation formula: V=0.5 a×b^2, wherein a and b stand for the long diameter and short diameter of a tumor respectively. Animal deaths were observed and recorded every day.
The tumor growth inhibition rate TGI (%) was calculated from the following formula to evaluate tumor inhibitory effect of antibody drug conjugates:
Specifically, in the experimental examples 1 and 2, tumor-bearing mice models were constructed by subcutaneous xenograft of a human gastric cancer cell line NCI-N87 or a human triple negative breast cancer cell line HCC1806. After the tumor volume was about 100 mm^3, the mice were randomly grouped, and intravenously administered with BT001021 twice a week for a total of 6 times. Changes in tumor volume and animal body weight were measured twice a week to evaluate the efficacy (tumor inhibitory effect) of the antibody drug conjugate on tumor-bearing mice.
NCI-N87 cells were cultured in a 1640 culture medium containing 10% fetal bovine serum at 37° C. and 5% CO2. NCI-N87 cells in the exponential growth stage were collected, resuspended in PBS to a suitable concentration, and inoculated subcutaneously into female Balb/c-nu mice to construct gastric cancer models. When the mean tumor volume was about 90 mm^3, the mice were randomly grouped into a physiological saline group, a BT001021 (3 mg/kg, IV, BIW×3W) group, a positive drug Immu-132 (3 mg/kg, IV, BIW×3W) group, a T030 group and a SN38 group according to the tumor size, followed by tail intravenous injection of corresponding drugs twice a week for a total of 6 times. After administration, the tumor volume and body weight of the mice were observed and measured regularly.

Data set [4] in a line: Experimental example 6: pharmacokinetics of BT001021 and T-030 in NCI-N87 tumor-bearing mice (T-030 in tumor and serum, LC-MS/MS). The class given is in vivo, Balb/c-nu mice. To be noted: T-030 0.23 mg/kg, single dose; for Cmax / AUC(0-t) / MRT inf / half-life: iv, 0.23 mg/kg; for AUC(0-t): read-out: AUClast (h*ng/ml) of T-030; for MRT inf: read-out: MRTINF (h) of T-030; for half-life: read-out: T1/2 (h) of T-030 (converted). An excerpt: Experimental example 6 was used to evaluate pharmacokinetics of antibody drug conjugates and bioactive molecules in vivo. Specifically, in the experiment, a tumor-bearing mice model was constructed by subcutaneous xenograft of a human gastric cancer cell line NCI-N87 to Balb/c-nu mice. After the tumor volume was 100-200 mm^3, the mice were randomly grouped, and intravenously administrated with a single dose of BT001021 and T-030. The concentration of the T-030 in tumor tissues and serum was determined to evaluate the pharmacokinetics in vivo of the antibody conjugate BT001021 and the bioactive molecule T-030 in the tumor-bearing mice.
Tumor-bearing mice (4 mice/group) with tumor volume of 100-200 mm^3 were randomly grouped (the number of groups was determined according to sample number), and the administration route was single tail intravenous injection.
NCI-N87 cells were cultured in a 1640 culture medium containing 10% heat-inactivated fetal bovine serum at 37° C. and 5% CO2. NCI—N87 cells in the exponential growth stage were collected, resuspended in PBS to a suitable concentration, and inoculated subcutaneously into Balb/c-nu mice to construct xenograft models of […]. When the mean tumor volume was about 100-200 mm^3, the mice were randomly grouped into a physiological saline group, a T-030 (0.23 mg/kg, IV, single dose) group and a BT001021 (10 mg/kg, IV, single dose) group according to the tumor size, followed by tail intravenous injection of corresponding drugs. For the T-030 group, serum and tumor tissues were collected 1 h, 2 h, 4 h, 8 h, 24 h and 72 h after administration (T-030 was not detected in the serum and tumor tissues 72 h after administration, therefore, serum and tumor tissues were not collected 168 h after administration). For BT001021 group, serum and tumor tissues were collected 1 h, 2 h, 4 h, 8 h, 24 h, 72 h and 168 h after administration to test the concentration of the T-030 in the serum and the tumors by LC-MS/MS. The administration dose of the T-030 (0.23 mg/kg) was converted to isomolar dose (10 mg/kg) of BT001021.

[5] abbreviates: Balb/c-nu, mouse, in vivo, Serum.
[6] abbreviates: Balb/c-nu, mouse, in vivo, Tumor.

By EC50 is commonly meant the concentration that produces a half-maximal response. As for `CC[C@H](C)[C@@H]([C@@H](CC(=O)N1CCC[C@H]1[C@H](OC)[C@@H](C)C(=O)NCC(=O)NCc1ccc(N)cc1)OC)N(C)C(=O)[C@@H](NC(=O)[C@H](C(C)C)N(C)C)C(C)C` [T015] (NMe2Val-V[Dil][Dolaproine]G-{NH(4-aminobenzyl)}), in data set [1], the EC50 amounted to 7.43 nM.

On to `CC[C@@]1(O)C(=O)OCc2c1cc1n(c2=O)Cc2c-1nc1ccccc1c2CCN(C(C)=O)C(C)C` [T-028, (S)—N-(2-(4-ethyl-4-hydroxyl-3,14-dione-3,4,12,14-tetrahydro-1H-pyrano [3′,4′,6,7]indolizino[1,2-b]quinolin-11-yl)ethyl)-N-isopropylacetamide], for which the EC50 in data set [2] (HCC1806, 72 h) amounted to 6.02 nM.

Regarding `CC[C@H](C)[C@@H]([C@@H](CC(=O)N1CCC[C@H]1[C@H](OC)[C@@H](C)C(=O)N[C@@H](Cc1ccccc1)C(=O)NCc1ccc(N)cc1)OC)N(C)C(=O)[C@@H](NC(=O)[C@H](C(C)C)N(C)C)C(C)C` [T011] (NMe2Val-V[Dil][Dolaproine]F-{NH(4-aminobenzyl)}), in data set [1], the EC50 came out at 0.211 nM.

For the compound `CC[C@H](C)[C@@H]([C@@H](CC(=O)N1CCC[C@H]1[C@H](OC)[C@@H](C)C(=O)NC(Cc1ccccc1)C(=O)NCc1ccc(N)cc1)OC)N(C)C(=O)[C@@H](NC(=O)[C@H](C(C)C)N(C)C)C(C)C` (stereo partly drawn) [T001, (2S)—N-((3R,4S,5S)-1-((2S)-2-((1R,2R)-3-((1-((4-aminobenzyl)amino)-1-oxo-3-phenylpropan-2-yl)amino)-1-methoxy-2-methyl-3-propionyl)pyrrolidin-1-yl)-3-methoxy-5-methyl-1-heptanoyl-4-yl)-2-((S)-2-(dimethylamino)-3-methylbutyrylamino)-N,3-dimethylbutyramide] (NMe2Val-V[Dil][Dolaproine][ξF]-{NH(4-aminobenzyl)}), the EC50 in data set [1] was 1.13 nM.

Turning to `CCc1c2c(nc3ccc(O)cc13)-c1cc3c(c(=O)n1C2)COC(=O)[C@]3(O)CC` [SN-38], in data set [3], the “Tumor Volume (mm^3) (x ± S)” value is recorded as 416.11 ± 195.15 mm^3 and the “Tumor growth inhibition rate (%)” value was −2.75%.

With `CC[C@H](C)[C@@H]([C@@H](CC(=O)N1CCC[C@H]1[C@H](OC)[C@@H](C)C(=O)N[C@H](Cc1ccccc1)C(=O)NCc1ccc(N)cc1)OC)N(C)C(=O)[C@@H](NC(=O)[C@H](C(C)C)N(C)C)C(C)C` [T012] (NMe2Val-V[Dil][Dolaproine][dF]-{NH(4-aminobenzyl)}), the EC50 in data set [1] was found to be 1.62 nM.

As a reminder, the Cmax is the highest concentration seen after dosing. For orientation: Tmax means the time at which the peak concentration occurs. With `CC[C@@]1(O)C(=O)OCc2c1cc1n(c2=O)Cc2c-1nc1ccccc1c2CCN(C(C)C)S(C)(=O)=O` [T-030, (S)—N-(2-(4-ethyl-4-hydroxyl-3,14-dione-3,4,12,14-tetrahydro-1H-pyrano[3′,4′,6,7]indolizino[1,2-b]quinolin-11-yl)ethyl)-N-isopropylmethanesulfonamide], the EC50 in data set [2] (72 h, HCC1806, 7500 cells/well, 3 days) amounted to 6.73 nM. For the same compound, in data set [3], the “Tumor Volume (mm^3) (x ± S)” value is recorded as 339.02 ± 152.80 mm^3 and the “Tumor growth inhibition rate (%)” value stood at 21.48%. For the same compound, the “T-030 in the serum and tumor tissues” value in data set [4] (72 h after administration, IV) is “not detected”. Further, in data set [4] (setting [5]), the peak level (Cmax) was 1.81 ng/mL, the AUC(0-t) is 5.58 ng·h/mL, the MRT inf stood at 1.11 h and the half-life is 1.76 h. For the same compound, in data set [4] (setting [6]), the Cmax was found to be 1.2 ng/mL, the AUC(0-t) stood at 3.85 ng·h/mL, the MRT inf worked out at 1.52 h and the half-life is 2.55 h. Moreover, in data set [4] (Balb/c-nu, mouse, in vivo, Tumor, IV), the Tmax came out at 1 h.

Take `CC[C@H](C)[C@@H]([C@@H](CC(=O)N1CCC[C@H]1[C@H](OC)[C@@H](C)C(=O)N[C@H](CC(=O)NCc1ccc(N)cc1)Cc1ccccc1)OC)N(C)C(=O)[C@@H](NC(=O)[C@H](C(C)C)N(C)C)C(C)C` [T013] (NMe2Val-V[Dil][Dolaproine][β3hF]-{NH(4-aminobenzyl)}): in data set [1], the EC50 was 0.414 nM.
